This note sets out measurements from patent publication US6752989B1, “Tooth surface treatment agent” (3M ESPE AG, priority 1999, dated 2004).

The assay has as its system fluorescence-marked casein. The assay is described as follows: Proteolytic pepsin activity with fluorescence-marked casein after contact with ground bovine dentine. It is filed as biochemical. The settings on record: 2.5 ml of 10 μg/ml solution, pH 2.0 buffer, on 1 g ground bovine dentine for 20 min; excitation 480 nm, emission 510 nm. The method, then:
2.5 ml of a pepsin solution (10 μg/ml) in a 20 mM disodium hydrogen phosphate buffer (pH 2.0) were added to 1 g of ground bovine dentine and allowed to remain there for 20 min. under agitation. Subsequently the mixture was centrifuged for 1 min. in a Heraeus Biofuge Pico at 10,000 rpm. 900 μl of the residue were mixed with 12 μg of fluorescence-marked casein (Molecular Probes company, Göttingen) in 100 μl 20 mM of disodium hydrogen phosphate buffer (pH 2.0). The presence of proteolytic pepsin activity is manifested in the increase in fluorescence with an excitation wave length of 480 nm and with an emission wave length of 510 nm.

Consider pepsin, for which the “proteolytic pepsin activity (increase in fluorescence)” value is listed as “no pepsin activity was determinable any more”.
